Laboratory results reported in PMC7618104, “The GLP-1 analogue, exendin-4, improves bone material properties and strength through a central relay in ovariectomized mice” (American journal of physiology. Endocrinology and metabolism, 2025).

Legend:
Type in all cases: in vivo, mouse (BALB/cJRj, female)
[1] = tested on: ovariectomized BALB/c mice; test: Plasma levels of calcitonin and bone remodeling markers (CTx-I, P1NP); settings: 28 days, n=8; for Calcitonin (plasma) / P1NP (plasma) / CTx-I (plasma): mean ± SD
Protocol: (§1) Eight animals were randomly assigned to each group.
(§2) All animals received intraperitoneal administration of calcein green (10 mg/kg) 10 days and 2 days before sacrifice. Animals were housed in social groups and maintained in a 12 h:12 h light/dark cycle. They had free access to water and food. At necropsy, blood was collected by intracardiac aspiration into EDTA-treated tubes. Blood samples were centrifuged at 13,000 g for 15 min, aliquoted and stored at -80°C until plasma levels of exendin-4 (#EK-070-94, Phoenix pharmaceuticals, Burlingame, CA) and calcitonin (NBP3-06734, Bio-Techne Ltd, Abingdon, UK) were measured according to the manufacturer’s protocol. Plasma levels of the bone remodeling markers C-terminal telopeptide of collagen type I (CTx-I – RatLaps, Immunodiagnostic Systems Ltd, Boldon, UK) and N-terminal propeptide of type I collagen (P1NP - Rat/mouse P1NP, Immunodiagnostic Systems Ltd) were measured according to the manufacturers’ recommendation. Right femurs were wrapped in saline-soaked gauze and frozen at -20°C until use. Right tibiae were fixed in ethanol-based fixative and stored at 4°C until use. No specific inclusion or exclusion criteria were applied for animal selection. […] Additionally, correct implantation of the cerebral perfusion cannulas for icv-administered animals was verified at necropsy. All animals meeting these criteria were included in the study.

[2] = tested on: ovariectomized BALB/c mice; test: microCT trabecular microstructure, proximal tibia metaphysis; settings: 28 days, vs OVX+vehicle, n=8
Protocol: as §1, §2
MicroCT analyses were performed at the proximal metaphysis of the right tibia and at the mid-diaphysis of the right femur with a Bruker 1272 microtomograph operated at 70 kV, 140 μA, 1000 ms integration time and imaging in ethanol 70. The isotropic pixel size was fixed at 4 μm, the rotation step at 0.25° and exposure was performed with a 0.5 mm aluminum filter. Hydroxyapatite phantoms (250 mg/cm^3 and 750 mg/cm^3) were used for calibration. Reconstruction of 2D projections was done with the NRecon software (Version 1.6.10.2). For tibial analysis, a trabecular volume of interest was located 0.5 mm below the growth plate at the proximal end and extended 2 mm down. Trabecular bone was separated from cortical bone with an automatic contouring script in CTan software (Version 1.20.8.0). The right femur was used for cortical microarchitecture. The region analyzed (0.5 mm) was centered at the midpoint between the third trochanter and the distal growth plate. Bone was segmented from soft tissue using global thresholding set at 300 mg/cm^3 for trabecular bone and 700 mg/cm^3 for cortical bone. All histomorphometrical parameters were measured with the CTan software according to guidelines and nomenclature proposed by the American Society for Bone and Mineral Research ([31]).

[3] = tested on: ovariectomized BALB/c mice; test: microCT cortical bone microstructure, midshaft femur; settings: 28 days, OVX, n=8
Protocol: as §1
All animals received intraperitoneal administration of calcein green (10 mg/kg) 10 days and 2 days before sacrifice. Animals were housed in social groups and maintained in a 12 h:12 h light/dark cycle. They had free access to water and food. At necropsy, blood was collected by intracardiac aspiration into EDTA-treated tubes. Blood samples were centrifuged at 13,000 g for 15 min, aliquoted and stored at -80°C until plasma levels of exendin-4 (#EK-070-94, Phoenix pharmaceuticals, Burlingame, CA) and calcitonin (NBP3-06734, Bio-Techne Ltd, Abingdon, UK) were measured according to the manufacturer’s protocol. Plasma levels of the bone remodeling markers C-terminal telopeptide of collagen type I (CTx-I – RatLaps, Immunodiagnostic Systems Ltd, Boldon, UK) and N-terminal propeptide of type I collagen (P1NP - Rat/mouse P1NP, Immunodiagnostic Systems Ltd) were measured according to the manufacturers’ recommendation. Right femurs were wrapped in saline-soaked gauze and frozen at -20°C until use. […]
MicroCT analyses were performed at the proximal metaphysis of the right tibia and at the mid-diaphysis of the right femur with a Bruker 1272 microtomograph operated at 70 kV, 140 μA, 1000 ms integration time and imaging in ethanol 70. […] The region analyzed (0.5 mm) was centered at the midpoint between the third trochanter and the distal growth plate. […]

In the case of exendin-4 [Ex-4], the “Calcitonin (plasma)” value ([1]; OVX + Ex-4, icv 70 pmol/day) is reported as 47 ± 10 pg/mL, the “P1NP (plasma)” value ([1]; OVX + Ex-4, icv 70 pmol/day) is reported as 28.0 ± 2.2 ng/mL and the “CTx-I (plasma)” value ([1]; OVX + Ex-4, icv 70 pmol/day, p<0.01 vs. OVX+Vehicle) is reported as 8.5 ± 1.7 ng/mL. The “P1NP (plasma)” value ([1]; OVX + Ex-4, s.c. ~700 pmol/day) was 25.2 ± 4.0 ng/mL, the “Calcitonin (plasma)” value ([1]; OVX + Ex-4, s.c. ~700 pmol/day, p<0.001 vs. OVX+Vehicle) was 111 ± 15 pg/mL and the “CTx-I (plasma)” value ([1]; OVX + Ex-4, s.c. ~700 pmol/day, p<0.05 vs. OVX+Vehicle) was 11.7 ± 2.0 ng/mL. The circulating calcitonin levels ([1]; icv Ex-4 70 pmol/day, OVX) was “no effects on circulating calcitonin levels”, the “change in plasma CTX-I” value ([1]; icv Ex-4 70 pmol/day, vs OVX+vehicle, p=0.005) was -38% and the “increase in plasma circulating calcitonin” value ([1]; s.c. Ex-4 ~700 pmol/day, vs OVX+vehicle, p<0.001) was 152%. For the same substance, the “change in plasma CTX-I” value ([1]; s.c. Ex-4 ~700 pmol/day, vs OVX+vehicle, p=0.012) was -20%, the “change in Tb.N” value ([2]; icv Ex-4 70 pmol/day, p<0.001) was 4% and the “change in BV/TV” value ([2]; icv Ex-4 70 pmol/day, p=0.005) was “+6%”. The “increase in Tb.N” value ([2]; s.c. Ex-4 ~700 pmol/day, p<0.001) was 6%, the “increase in BV/TV” value ([2]; s.c. Ex-4 ~700 pmol/day, p=0.002) was 11% and the cortical bone microstructure ([3]; icv Ex-4 70 pmol/day) was “unable to demonstrate significant changes in cortical bone microstructure”. For the same substance, the cortical bone microstructure ([3]; s.c. Ex-4 ~700 pmol/day) was “did not alter cortical bone microstructure”.
